# Source: ChEMBL document CHEMBL3885881, “DrugMatrix”
# Organism: Rattus norvegicus
# Test: DrugMatrix - Regimen: Daily Repeat
# Format: toxicity, organism-based, Sprague-Dawley
# Set-up: regimen Daily Repeat, gender Male, age 6-8 weeks
# Settings: in vivo, po, route oral GAVAGE, vehicle .5 % CMC; for ABSOLUTE BASOPHIL / ABSOLUTE EOSINOPHIL / ABSOLUTE LYMPHOCYTE / ABSOLUTE MONOCYTE / ABSOLUTE SEGMENTED NEUTROPHIL / BASOPHIL / EOSINOPHIL / ERYTHROCYTE COUNT / HEMATOCRIT / HEMOGLOBIN / LEUKOCYTE COUNT / LYMPHOCYTE / MEAN CORPUSCULAR HEMOGLOBIN / MEAN CORPUSCULAR HEMOGLOBIN CONCENTRATION / MEAN CORPUSCULAR VOLUME / MONOCYTE / NEUTROPHIL / NUCLEATED RED BLOOD CELLS / PLATELET COUNT: tissue Blood; for ALANINE AMINOTRANSFERASE / ALBUMIN / ALKALINE PHOSPHATASE / ASPARTATE AMINOTRANSFERASE / BLOOD UREA NITROGEN / CARBON DIOXIDE / CHLORIDE / CHOLESTEROL / CREATINE PHOSPHOKINASE / CREATININE / GLUCOSE / LACTATE DEHYDROGENASE / LIPASE / PHOSPHORUS / POTASSIUM / SODIUM / TOTAL BILIRUBIN / TOTAL PROTEIN / URIC ACID: tissue Plasma
# [1] = 0 mg/kg, 72 h, dose level Control, time 3 day
# [2] = 0 mg/kg, 120 h, dose level Control, time 5 day
# [3] = 17 mg/kg, 72 h, dose level Low, time 3 day
compound,measurement,setting,value
CN1CCN(CCCN2c3ccccc3Sc3ccc(Cl)cc32)CC1 [PROCHLORPERAZINE],ABSOLUTE BASOPHIL,[1],0 CELLS/uL
same,ABSOLUTE EOSINOPHIL,[1],0 CELLS/uL
same,ABSOLUTE LYMPHOCYTE,[1],10913.67 CELLS/uL
same,ABSOLUTE MONOCYTE,[1],85.33 CELLS/uL
same,ABSOLUTE SEGMENTED NEUTROPHIL,[1],1401 CELLS/uL
same,BASOPHIL,[1],0%
same,EOSINOPHIL,[1],0%
same,ERYTHROCYTE COUNT,[1],5.57 x10E6/uL
same,HEMATOCRIT,[1],35.58%
same,HEMOGLOBIN,[1],13.8 G/DL
same,LEUKOCYTE COUNT,[1],12.4 x10E3/uL
same,LYMPHOCYTE,[1],88%
same,MEAN CORPUSCULAR HEMOGLOBIN,[1],24.78 pg
same,MEAN CORPUSCULAR HEMOGLOBIN CONCENTRATION,[1],38.82 G/DL
same,MEAN CORPUSCULAR VOLUME,[1],63.88 fL
same,MONOCYTE,[1],0.67%
same,NEUTROPHIL,[1],11.33%
same,NUCLEATED RED BLOOD CELLS,[1],0 /100WBC
same,PLATELET COUNT,[1],1162.33 x10E3/uL
same,ALANINE AMINOTRANSFERASE,[1],53 u/L
same,ALBUMIN,[1],4.17 G/DL
same,ALKALINE PHOSPHATASE,[1],374.5 u/L
same,ASPARTATE AMINOTRANSFERASE,[1],89.5 u/L
same,BLOOD UREA NITROGEN,[1],16.33 mg/dL
same,CARBON DIOXIDE,[1],29.17 mmol/L
same,CHLORIDE,[1],97.67 MEQ/L
same,CHOLESTEROL,[1],77 mg/dL
same,CREATINE PHOSPHOKINASE,[1],464.83 u/L
same,CREATININE,[1],0.14 mg/dL
same,GLUCOSE,[1],164 mg/dL
same,LACTATE DEHYDROGENASE,[1],155.5 u/L
same,LIPASE,[1],9.17 u/L
same,PHOSPHORUS,[1],12.4 mg/dL
same,POTASSIUM,[1],6.91 MEQ/L
same,SODIUM,[1],141.47 MEQ/L
same,TOTAL BILIRUBIN,[1],0.2 mg/dL
same,TOTAL PROTEIN,[1],5.95 G/DL
same,URIC ACID,[1],1.72 mg/dL
same,ABSOLUTE BASOPHIL,[2],0 CELLS/uL
same,ABSOLUTE EOSINOPHIL,[2],20.5 CELLS/uL
same,ABSOLUTE LYMPHOCYTE,[2],13871.67 CELLS/uL
same,ABSOLUTE MONOCYTE,[2],60.5 CELLS/uL
same,ABSOLUTE SEGMENTED NEUTROPHIL,[2],980.67 CELLS/uL
same,BASOPHIL,[2],0%
same,EOSINOPHIL,[2],0.17%
same,ERYTHROCYTE COUNT,[2],5.65 x10E6/uL
same,HEMATOCRIT,[2],35.63%
same,HEMOGLOBIN,[2],14.08 G/DL
same,LEUKOCYTE COUNT,[2],14.93 x10E3/uL
same,LYMPHOCYTE,[2],92.83%
same,MEAN CORPUSCULAR HEMOGLOBIN,[2],24.97 pg
same,MEAN CORPUSCULAR HEMOGLOBIN CONCENTRATION,[2],39.55 G/DL
same,MEAN CORPUSCULAR VOLUME,[2],63.13 fL
same,MONOCYTE,[2],0.33%
same,NEUTROPHIL,[2],6.67%
same,NUCLEATED RED BLOOD CELLS,[2],0 /100WBC
same,PLATELET COUNT,[2],1248.17 x10E3/uL
same,ALANINE AMINOTRANSFERASE,[2],45.17 u/L
same,ALBUMIN,[2],4.27 G/DL
same,ALKALINE PHOSPHATASE,[2],405.67 u/L
same,ASPARTATE AMINOTRANSFERASE,[2],74.17 u/L
same,BLOOD UREA NITROGEN,[2],15.5 mg/dL
same,CARBON DIOXIDE,[2],30.17 mmol/L
same,CHLORIDE,[2],100.67 MEQ/L
same,CHOLESTEROL,[2],57 mg/dL
same,CREATINE PHOSPHOKINASE,[2],239.5 u/L
same,CREATININE,[2],0.17 mg/dL
same,GLUCOSE,[2],165.67 mg/dL
same,LACTATE DEHYDROGENASE,[2],90.5 u/L
same,LIPASE,[2],8.83 u/L
same,PHOSPHORUS,[2],12.32 mg/dL
same,POTASSIUM,[2],7.03 MEQ/L
same,SODIUM,[2],142.65 MEQ/L
same,TOTAL BILIRUBIN,[2],0.18 mg/dL
same,TOTAL PROTEIN,[2],6.03 G/DL
same,URIC ACID,[2],1.98 mg/dL
same,ABSOLUTE BASOPHIL,[3],0 CELLS/uL
same,ABSOLUTE EOSINOPHIL,[3],0 CELLS/uL
same,ABSOLUTE LYMPHOCYTE,[3],10730.67 CELLS/uL
same,ABSOLUTE MONOCYTE,[3],90 CELLS/uL
same,ABSOLUTE SEGMENTED NEUTROPHIL,[3],1446 CELLS/uL
same,BASOPHIL,[3],0%
same,EOSINOPHIL,[3],0%
same,ERYTHROCYTE COUNT,[3],5.49 x10E6/uL
same,HEMATOCRIT,[3],34.9%
same,HEMOGLOBIN,[3],13.83 G/DL
same,LEUKOCYTE COUNT,[3],12.27 x10E3/uL
same,LYMPHOCYTE,[3],87.67%
same,MEAN CORPUSCULAR HEMOGLOBIN,[3],25.3 pg
same,MEAN CORPUSCULAR HEMOGLOBIN CONCENTRATION,[3],39.67 G/DL
same,MEAN CORPUSCULAR VOLUME,[3],63.77 fL
same,MONOCYTE,[3],0.67%
same,NEUTROPHIL,[3],11.67%
same,NUCLEATED RED BLOOD CELLS,[3],0.33 /100WBC
same,PLATELET COUNT,[3],1239 x10E3/uL
same,ALANINE AMINOTRANSFERASE,[3],45 u/L
same,ALBUMIN,[3],4.17 G/DL
same,ALKALINE PHOSPHATASE,[3],413.67 u/L
same,ASPARTATE AMINOTRANSFERASE,[3],85.33 u/L
same,BLOOD UREA NITROGEN,[3],15.33 mg/dL
same,CARBON DIOXIDE,[3],26 mmol/L
same,CHLORIDE,[3],99.33 MEQ/L
same,CHOLESTEROL,[3],67.67 mg/dL
same,CREATINE PHOSPHOKINASE,[3],343 u/L
same,CREATININE,[3],0.13 mg/dL
same,GLUCOSE,[3],151 mg/dL
same,LACTATE DEHYDROGENASE,[3],394.67 u/L
same,LIPASE,[3],9.67 u/L
same,PHOSPHORUS,[3],14.23 mg/dL
same,POTASSIUM,[3],6.98 MEQ/L
same,SODIUM,[3],143.17 MEQ/L
same,TOTAL BILIRUBIN,[3],0.2 mg/dL
same,TOTAL PROTEIN,[3],5.9 G/DL
same,URIC ACID,[3],1.5 mg/dL
